Experimental data published in ChEMBL document CHEMBL1201862, “PubChem BioAssay data set” (2004).
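Interpolation was linear, between the two tested concentrations surrounding the appropriate level; five concentrations were tested over 48 hours in 96-well plates. GI50 is the concentration that inhibits growth by half.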 The source made the active and inactive calls. Rule as the data show it: active = GI50 up to about 1.1 µM and inactive = higher.

Legend:
Assay in all cases: inhibition of tumour cell growth, NCI panel, 48 h
LOX IMVI = system: LOX IMVI
SF-295 = system: SF-295
SK-MEL-2 = system: SK-MEL-2
OVCAR-3 = system: OVCAR-3
A498 = system: A498
RXF 393 = system: RXF 393
MCF7 = system: MCF7
T47D = system: T47D
NCI-H226 = system: NCI-H226
OVCAR-8 = system: OVCAR-8
U-251 = system: U-251
MDA-MB-435 = system: MDA-MB-435
PC-3 = system: PC-3
MDA-N = system: MDA-N
SNB-19 = system: SNB-19
HT-29 = system: HT-29
SW-620 = system: SW-620

Structure (SMILES)	GI50 (LOX IMVI)	GI50 (SF-295)	GI50 (SK-MEL-2)	GI50 (OVCAR-3)	GI50 (A498)	GI50 (RXF 393)	GI50 (MCF7)	GI50 (T47D)	GI50 (NCI-H226)	GI50 (OVCAR-8)	GI50 (U-251)	GI50 (MDA-MB-435)	GI50 (PC-3)	GI50 (MDA-N)	GI50 (SNB-19)	GI50 (HT-29)	GI50 (SW-620)
O=S(=O)(c1ccc(Br)cc1)N1CCN(S(=O)(=O)c2ccc(Br)cc2)CC1	> 100 µM (inactive)	> 100 µM (inactive)	> 100 µM (inactive)	> 100 µM (inactive)	> 100 µM (inactive)	> 100 µM (inactive)	> 100 µM (inactive)	> 100 µM (inactive)	> 100 µM (inactive)	> 100 µM (inactive)	> 100 µM (inactive)	> 100 µM (inactive)	> 100 µM (inactive)	> 100 µM (inactive)	> 100 µM (inactive)	> 100 µM (inactive)	> 100 µM (inactive)
c1ccc(COC[C@H]2C3OCC([C@H](OCc4ccccc4)[C@H]3OCc3ccccc3)N2Cc2ccccc2)cc1 (some centres not stated)	> 50.6 µM (inactive)	> 51.2 µM (inactive)	> 49.2 µM (inactive)	17.4 µM (inactive)	33.7 µM (inactive)	> 100 µM (inactive)	> 56 µM (inactive)	13.6 µM (inactive)	17.7 µM (inactive)	> 50 µM (inactive)	26.2 µM (inactive)	> 55.2 µM (inactive)	20.2 µM (inactive)	> 53.2 µM (inactive)	> 49.3 µM (inactive)	46.6 µM (inactive)	> 57 µM (inactive)
COc1cc(/C=C2/CCCc3ccccc3C2=O)cc(OC)c1OC	15.4 µM (inactive)	18.4 µM (inactive)	20.6 µM (inactive)	19.2 µM (inactive)	7.89 µM (inactive)	28.9 µM (inactive)	9.79 µM (inactive)	5.92 µM (inactive)	9.62 µM (inactive)	13.7 µM (inactive)	15.5 µM (inactive)	7.85 µM (inactive)	10.1 µM (inactive)	9.53 µM (inactive)	32.5 µM (inactive)	17.5 µM (inactive)	22.4 µM (inactive)
CCOC(=O)c1cn(-c2ccc([N+](=O)[O-])cc2)c(=S)n2c1nc1ccccc12	56.5 µM (inactive)	45.6 µM (inactive)	17.8 µM (inactive)	53.7 µM (inactive)	20.6 µM (inactive)	63.5 µM (inactive)	33.2 µM (inactive)	58.6 µM (inactive)	37.2 µM (inactive)	35.5 µM (inactive)	36.2 µM (inactive)	41.8 µM (inactive)	13.6 µM (inactive)	39.7 µM (inactive)	72.6 µM (inactive)	26.4 µM (inactive)	47 µM (inactive)
COc1cc2cc(C(=O)N3C[C@H](CCl)c4c3cc(N)c3ccccc43)[nH]c2c(OC)c1OC	0.519 µM (active)	2.61 µM (inactive)	2.05 µM (inactive)	0.555 µM (active)	0.0075 µM (active)	0.571 µM (active)	0.0023 µM (active)	< 0.005 µM (active)	9.51 µM (inactive)	0.447 µM (active)	0.279 µM (active)	0.00577 µM (active)	0.0507 µM (active)	< 0.01 µM (active)	0.713 µM (active)	0.00296 µM (active)	0.0233 µM (active)
NNC(=O)CCC(NS(=O)(=O)c1ccc(Cl)cc1)C(=O)NN (configuration not stated)	> 100 µM (inactive)	> 100 µM (inactive)	> 100 µM (inactive)	> 100 µM (inactive)	> 100 µM (inactive)	> 100 µM (inactive)	> 100 µM (inactive)	> 100 µM (inactive)	> 100 µM (inactive)	> 100 µM (inactive)	> 100 µM (inactive)	> 100 µM (inactive)	> 100 µM (inactive)	> 100 µM (inactive)	> 100 µM (inactive)	> 100 µM (inactive)	> 100 µM (inactive)
